Common to all, as to format: cell-based
Experiment [1] deals with Geotrichum candidum (Gca). The experiment can be described thus: Poison plate assay (Experiment 2), fungal growth and Limpel synergy. As for the experimental part: (§1) Name of the primary compound: imazalil (I) Formulations: (% is in w/v)
• Stock solution: 2000 ppm (w/w) • Solvent for dilutions: demineralised water • Fungal species: post harvest and seed pathogens: Geotrichum candidum (Gca) and Penicillium digitatum (Pdi) Calculated amounts of dilutions were poured into multi-well plates. Culture medium was added aseptically and uniform distribution was obtained by shaking. […] The expected activity E of a combination of active ingredients was calculated by using Limpel's formula (Richter, D. L; Pesticide Science 1987, 19: 309-315): • E=A+B−(A*B)/100 wherein A and B express the activities obtained for each of the active ingredients when applied alone. A synergistic effect is acknowledged if the measured activity M exceeds the calculated (expected) activity E (synergy indicated by figures in bold).

In experiment [2] the test system is Penicillium digitatum (Pdi). The description is as above. Particulars: Table 6, Pdi; imazalil 0.02 ppm, combinations 0.02 + 0.02 ppm; conc 0 for carpropamid and fosetyl-Al alone. As for the experimental part:
as §1
• Stock solution: 2000 ppm (w/w) • Solvent for dilutions: demineralised water • Fungal species: post harvest and seed pathogens: Geotrichum candidum (Gca) and Penicillium digitatum (Pdi) Calculated amounts of dilutions were poured into multi-well plates. Culture medium was added aseptically and uniform distribution was obtained by shaking. The plates were inoculated with the test fungi and incubated during a period long enough to allow complete outgrowth of controls. • Test concentrations: noted in ppm versus growth medium (w/v): see tables • Replicates: 4 • Culture medium: PDA (Potato Dextrose Agar) • Culture conditions: 22° C. and 60% relative humidity • Inoculation: with a small piece of agar from the margin of an actively growing culture or a suspension of spores, mycelium or culture • Evaluation date: at complete outgrowth of control • Synergy calculation: Diameter of fungal growth (in mm) was measured, mean radial growth (X) and measured activity (M) were calculated. The expected activity E of a combination of active ingredients was calculated by using Limpel's formula (Richter, D. L; Pesticide Science 1987, 19: 309-315): • E=A+B−(A*B)/100 wherein A and B express the activities obtained for each of the active ingredients when applied alone. A synergistic effect is acknowledged if the measured activity M exceeds the calculated (expected) activity E (synergy indicated by figures in bold).

Experiment [3] concerns Colletotrichum musae. Briefly: Poison plate assay (Experiment 1), MIC and Synergy Index. To be noted: PDA, 27° C., evaluation after two days, ppm total active ingredient; for MIC: 48 h, read-out: MIC-values (minimum inhibitory concentration) in ppm. The text has this: (§2) Name of the primary compound: • imazalil (I) Name of the combination partners: • boscalid (II-a) • cyproconazole (II-b) • pyraclostrobin (II-c) • triflumizole (II-d) Stock solution: 1000 ppm in DMSO
(§3) • Concentrations of total active ingredient in the combinations: a series of concentrations increasing with steps of 1/3: 0.21-0.28-0.38-0.50-0.67-0.89-1.19-1.58-2.11-2.81-3.75-5.00-6.67-8.90-11.87-15.82-21.09-28.13-37.50-50.00 ppm • Culture medium: Potato Dextrose Agiar (PDA): 4 g potato infusion, 20 g bacto dextrose and 15 g bacto agar in 1 liter deionised water • Experimental set up: 24-well plates
(§4) • Inoculum: a spore/mycelium suspension (2 μl) or a piece of agar from the margin of an actively growing colony • Culture conditions: 27° C., 70% relative humidity, dark. • Evaluation: Evaluation after two days. Synergism between component (I) and one of the components (II) was determined by a commonly used and accepted method described by Kull F. C. et al. in Applied Microbiology, 9, 538-541 (1961) using the Synergy Index, which is calculated as follows for two compounds A and B: […]
(§5) wherein: • QA is the concentration of compound A in ppm, acting alone, which produced an end point (e.g. MIC), • Qa is the concentration of compound A in ppm, in the mixture, which produced an end point (e.g. MIC), • QB is the concentration of compound B in ppm, acting alone, which produced an end point (e.g. MIC), • Qb is the concentration of compound B in ppm, in the mixture, which produced an end point (e.g. MIC). When the Synergy Index is greater than 1.0, antagonism is indicated.

Experiment [4] relates to Geotrichum candidum. The experiment is described as above. Particulars: 48 h, PDA, 27° C., evaluation after two days, ppm total active ingredient, read-out: MIC-values (minimum inhibitory concentration) in ppm.
Description: as §2, §3, §4, §5

The subject of experiment [5] is Gloeosporium album. The experiment is described as above. Particulars: PDA, 27° C., evaluation after two days, ppm total active ingredient; for MIC: Phlyctema vagabunda, 48 h, read-out: MIC-values (minimum inhibitory concentration) in ppm.
Description: as §2, §3, §4, §5

Experiment [6] deals with Rhizoctonia solani. The description is as above. Particulars: PDA, 27° C., evaluation after two days, ppm total active ingredient; for MIC: 48 h, read-out: MIC-values (minimum inhibitory concentration) in ppm.
Description: as §2, §3, §4, §5

Where [7] appears, read: Table 7, Gca, conc 60 μM (tetraconazole 6 μM), combinations 60 + 60, (I) + (II-i) 60 + 6.
Setting [8] is: Table 7, Gca, conc 70 μM (tetraconazole 7 μM), combinations 70 + 70, (I) + (II-i) 70 + 7.
Where [9] appears, read: Table 5, Gca, conc 20 ppm each (combinations 20 + 20).
The mark [10] stands for this setting: Table 5, Gca, conc 25 ppm each (combinations 25/25).

As to `CSC(=O)c1cccc2nnsc12` [acibenzolar-S-me (II-e), benzo[1,2,3]-thiadiazole-7-carbothioic acid S-methyl ester], in experiment [1] (setting [7]), the “M = measured activity” value worked out at 7 and the “X = mean fungal growth” value came to 14 mm. In experiment [1] (setting [8]), the “M = measured activity” value was determined as 3 and the “X = mean fungal growth” value is recorded as 15 mm.
As to `CCC1(C(=O)NC(C)c2ccc(Cl)cc2)C(C)C1(Cl)Cl` (stereo not drawn) [carpropamid (II-f), 2,2-dichloro-N-[1-(4-chlorophenyl)ethyl]-1-ethyl-3-methyl-cyclopropanecarboxamide], in experiment [2], the “M = measured activity” value was 0 and the “X = mean fungal growth” value was 15 mm.
Take `CC(C1CC1)C(O)(Cn1cncn1)c1ccc(Cl)cc1` (stereo not drawn) [cyproconazole, α-(4-chloro-phenyl)-α-(1-cyclopropyl-ethyl)-1H-1,2,4-triazole-1-ethanol]: the MIC was found to be 66.7 µg/mL in experiment [3], 6.67 µg/mL in experiment [4], 2.81 µg/mL in experiment [5] and 11.9 µg/mL in experiment [6].
For `C=CCOC(Cn1ccnc1)c1ccc(Cl)cc1Cl` (stereo not drawn) [imazalil], the MIC in experiment [3] stood at 8.9 µg/mL; in experiment [4] it was 66.7 µg/mL; in experiment [5], 1.58 µg/mL; in experiment [6], 50 µg/mL. Also, the “M = measured activity” value in experiment [1] (setting [9]) was determined as 38; in experiment [1] (setting [10]) it was 50; in experiment [1] (setting [7]) it was 7; in experiment [1] (setting [8]) it was 68; in experiment [2], 88. The “X = mean fungal growth” value in experiment [1] (setting [9]) is 9 mm; in experiment [1] (setting [10]), 7 mm; in experiment [1] (setting [7]), 14 mm; in experiment [1] (setting [8]), 5 mm; in experiment [2], 2 mm.
For `COC(=O)N(OC)c1ccccc1COc1ccn(-c2ccc(Cl)cc2)n1` [pyraclostrobin, methyl N-(2-[1-(4-chlorophenyl)-1H-pyrazol-3-yloxymethyl]phenyl](N-methoxy)carbamate], the MIC in experiment [3], in experiment [5] and in experiment [6] was 66.7 µg/mL each time.
On to `FC(F)C(F)(F)OCC(Cn1cncn1)c1ccc(Cl)cc1Cl` (stereo not drawn) [tetraconazole (II-i), 1-[2-(2,4-dichloro-phenyl)-3-(1,1,2,2-tetrafluoroethoxy)propyl]-1H-1,2,4-triazole], for which the “M = measured activity” value in experiment [1] (setting [9]) was determined as 36; in experiment [1] (setting [10]) it was 45; in experiment [1] (setting [7]), 15; in experiment [1] (setting [8]), 3. Besides, the “X = mean fungal growth” value in experiment [1] (setting [9]) is 9 mm; in experiment [1] (setting [10]), 8 mm; in experiment [1] (setting [7]), 13 mm; in experiment [1] (setting [8]) it was 15 mm.
`CCC(C)(NC(=O)c1cc(Cl)c(C)c(Cl)c1)C(=O)CCl` (stereo not drawn) [zoxamide (II-j), 3,5-dichloro-N-(3-chloro-1-ethyl-1-methyl-2-oxopropyl)-4-methyl-benzamide]: the “M = measured activity” value in experiment [1] (setting [7]) is 0; in experiment [1] (setting [8]), 2. Further, the “X = mean fungal growth” value in experiment [1] (setting [7]) and in experiment [1] (setting [8]) was 15 mm each time.
Regarding “(E)-4-chloro-ααα-trifluoro-N-(1-imidazol-1-yl-2-propoxyethylidene)-o-toluidine [triflumizole]”, the figures for the “MIC-values (minimum inhibitory concentration) in ppm” value in experiment [3], in experiment [5] and in experiment [6] were 28.13 ppm, 6.67 ppm and 37.50 ppm, respectively.

These data come from US20080234336A1, “Synergistic Imazalil Combinations” (priority 2005, published 2008).
